Measurements: PMC9823097, “Dysregulation of PRMT5 in chronic lymphocytic leukemia promotes progression with high risk of Richter’s transformation” (Nature Communications, 2023)
“Also recorded” adds a separate entry of the source.

How the values were obtained:
Type in all cases: cell-based
HG3 CLL cell line = test: Global symmetric dimethyl arginine (SDMA) western blot, HG3; conditions: HG3, EPZ015666 for 72hr
Excerpt: Proteins extracted from whole-cell lysates were resolved by SDS-PAGE and transferred on nitrocellulose membrane as previously described. CpG685 oligonucleotide was obtained from the OSU Cytogenetics Core Lab. Antibodies used for immunoblots included anti-human PRMT5 (Abcam #ab109451), GAPDH (Millipore Sigma #MAB374), SDMA (Cell Signaling Technology #13222), c-Myc (Cell Signaling Technology #5605S), and β-Actin (Cell Signaling Technology #4967S). Cas9-mediated doxycycline-inducible knockout of PRMT5 utilized a targeted sgRNA (guide sequence: […], PAM: GGG).

Mec-1 cells = test: Cell growth curves over 12 days, Mec-1
Procedure: (§1) Live cells/mL were counted on days 3, 6, 10, and 12. […] The split factor was calculated at indicated time points by dividing the counted cells/mL by 3E5. Cell growth was extrapolated over time by multiplying the subsequent cell count by the previous split factor. Cell growth is plotted as fold change relative to DMSO-treated cells.

HG3 cells = test: Cell growth curves over 12 days, HG3
Procedure: as §1

## O=C(NC[C@H](O)CN1CCc2ccccc2C1)c1cc(NC2COC2)ncn1 [EPZ015666]
HG3 CLL cell line
  global symmetric dimethyl arginine residues (immunoblot): dose dependent global loss; also recorded: only a modest decrease
Mec-1 cells; Mec-1, 1 nM, day 0
  Rep 1 Live Cells [Fold Change]: 1 Fold Change
  Rep 2 Live Cells [Fold Change]: 1 Fold Change
Mec-1 cells; Mec-1, 1 nM, day 3
  Rep 1 Live Cells [Fold Change]: 8.617 Fold Change
  Rep 2 Live Cells [Fold Change]: 9.35 Fold Change
Mec-1 cells; Mec-1, 1 nM, day 6
  Rep 1 Live Cells [Fold Change]: 72.0928 Fold Change
  Rep 2 Live Cells [Fold Change]: 74.5 Fold Change
Mec-1 cells; Mec-1, 1 nM, day 10
  Rep 1 Live Cells [Fold Change]: 633.719 Fold Change
  Rep 2 Live Cells [Fold Change]: 819 Fold Change
Mec-1 cells; Mec-1, 1 nM, day 12
  Rep 1 Live Cells [Fold Change]: 3882.24 Fold Change
  Rep 2 Live Cells [Fold Change]: 4970 Fold Change
Mec-1 cells; Mec-1, 10 nM, day 0
  Rep 1 Live Cells [Fold Change]: 1 Fold Change
  Rep 2 Live Cells [Fold Change]: 1 Fold Change
Mec-1 cells; Mec-1, 10 nM, day 3
  Rep 1 Live Cells [Fold Change]: 7.233 Fold Change
  Rep 2 Live Cells [Fold Change]: 10.3 Fold Change
Mec-1 cells; Mec-1, 10 nM, day 6
  Rep 1 Live Cells [Fold Change]: 40.9889 Fold Change
  Rep 2 Live Cells [Fold Change]: 85.8 Fold Change
Mec-1 cells; Mec-1, 10 nM, day 10
  Rep 1 Live Cells [Fold Change]: 534.674 Fold Change
  Rep 2 Live Cells [Fold Change]: 1290 Fold Change
Mec-1 cells; Mec-1, 10 nM, day 12
  Rep 1 Live Cells [Fold Change]: 1546.22 Fold Change
  Rep 2 Live Cells [Fold Change]: 3960 Fold Change
Mec-1 cells; Mec-1, 100 nM, day 0
  Rep 1 Live Cells [Fold Change]: 1 Fold Change
  Rep 2 Live Cells [Fold Change]: 1 Fold Change
  Rep 3 Live Cells [Fold Change]: 1 Fold Change
  Rep 4 Live Cells [Fold Change]: 1 Fold Change
Mec-1 cells; Mec-1, 100 nM, day 3
  Rep 1 Live Cells [Fold Change]: 10.3 Fold Change
  Rep 2 Live Cells [Fold Change]: 8.66 Fold Change
  Rep 3 Live Cells [Fold Change]: 6.583 Fold Change
  Rep 4 Live Cells [Fold Change]: 8.22 Fold Change
Mec-1 cells; Mec-1, 100 nM, day 6
  Rep 1 Live Cells [Fold Change]: 88.992 Fold Change
  Rep 2 Live Cells [Fold Change]: 55.1353 Fold Change
  Rep 3 Live Cells [Fold Change]: 56.8361 Fold Change
  Rep 4 Live Cells [Fold Change]: 60.1 Fold Change
Mec-1 cells; Mec-1, 100 nM, day 10
  Rep 2 Live Cells [Fold Change]: 518.272 Fold Change
  Rep 3 Live Cells [Fold Change]: 601.592 Fold Change
  Rep 4 Live Cells [Fold Change]: 484 Fold Change
Mec-1 cells; Mec-1, 100 nM, day 12
  Rep 1 Live Cells [Fold Change]: 615.119 Fold Change
  Rep 2 Live Cells [Fold Change]: 1560 Fold Change
  Rep 3 Live Cells [Fold Change]: 1676.06 Fold Change
  Rep 4 Live Cells [Fold Change]: 3230 Fold Change
Mec-1 cells; Mec-1, 1 µM, day 0
  Rep 1 Live Cells [Fold Change]: 1 Fold Change
  Rep 2 Live Cells [Fold Change]: 1 Fold Change
  Rep 3 Live Cells [Fold Change]: 1 Fold Change
  Rep 4 Live Cells [Fold Change]: 1 Fold Change
Mec-1 cells; Mec-1, 1 µM, day 3
  Rep 1 Live Cells [Fold Change]: 7.867 Fold Change
  Rep 2 Live Cells [Fold Change]: 5.46 Fold Change
  Rep 3 Live Cells [Fold Change]: 6.18 Fold Change
  Rep 4 Live Cells [Fold Change]: 8.87 Fold Change
Mec-1 cells; Mec-1, 1 µM, day 6
  Rep 1 Live Cells [Fold Change]: 54.0178 Fold Change
  Rep 2 Live Cells [Fold Change]: 38.4384 Fold Change
  Rep 3 Live Cells [Fold Change]: 49.852 Fold Change
  Rep 4 Live Cells [Fold Change]: 61.2 Fold Change
Mec-1 cells; Mec-1, 1 µM, day 10
  Rep 1 Live Cells [Fold Change]: 514.04 Fold Change
  Rep 2 Live Cells [Fold Change]: 244.725 Fold Change
  Rep 3 Live Cells [Fold Change]: 462.377 Fold Change
  Rep 4 Live Cells [Fold Change]: 387 Fold Change
Mec-1 cells; Mec-1, 1 µM, day 12
  Rep 1 Live Cells [Fold Change]: 1825.77 Fold Change
  Rep 2 Live Cells [Fold Change]: 748.774 Fold Change
  Rep 3 Live Cells [Fold Change]: 1841.8 Fold Change
  Rep 4 Live Cells [Fold Change]: 1610 Fold Change
Mec-1 cells; Mec-1, continuous exposure over 12 days
  effect on growth potential (cell growth): No changes in growth potential
HG3 cells; HG3, 1 nM, day 0
  Rep 1 Live Cells [Fold Change]: 1 Fold Change
  Rep 2 Live Cells [Fold Change]: 1 Fold Change
HG3 cells; HG3, 1 nM, day 3
  Rep 1 Live Cells [Fold Change]: 5.41 Fold Change
  Rep 2 Live Cells [Fold Change]: 6.183 Fold Change
HG3 cells; HG3, 1 nM, day 6
  Rep 1 Live Cells [Fold Change]: 37.87 Fold Change
  Rep 2 Live Cells [Fold Change]: 41.0161 Fold Change
HG3 cells; HG3, 1 nM, day 10
  Rep 1 Live Cells [Fold Change]: 230.663 Fold Change
  Rep 2 Live Cells [Fold Change]: 364.018 Fold Change
HG3 cells; HG3, 1 nM, day 12
  Rep 1 Live Cells [Fold Change]: 1359.37 Fold Change
  Rep 2 Live Cells [Fold Change]: 2238.71 Fold Change
HG3 cells; HG3, 10 nM, day 0
  Rep 1 Live Cells [Fold Change]: 1 Fold Change
  Rep 2 Live Cells [Fold Change]: 1 Fold Change
HG3 cells; HG3, 10 nM, day 3
  Rep 1 Live Cells [Fold Change]: 6.05 Fold Change
  Rep 2 Live Cells [Fold Change]: 5.567 Fold Change
HG3 cells; HG3, 10 nM, day 6
  Rep 1 Live Cells [Fold Change]: 44.77 Fold Change
  Rep 2 Live Cells [Fold Change]: 36.2761 Fold Change
HG3 cells; HG3, 10 nM, day 10
  Rep 1 Live Cells [Fold Change]: 317.46 Fold Change
  Rep 2 Live Cells [Fold Change]: 308.347 Fold Change
HG3 cells; HG3, 10 nM, day 12
  Rep 1 Live Cells [Fold Change]: 1720.21 Fold Change
  Rep 2 Live Cells [Fold Change]: 1505.76 Fold Change
HG3 cells; HG3, 100 nM, day 0
  Rep 1 Live Cells [Fold Change]: 1 Fold Change
  Rep 2 Live Cells [Fold Change]: 1 Fold Change
  Rep 3 Live Cells [Fold Change]: 1 Fold Change
  Rep 4 Live Cells [Fold Change]: 1 Fold Change
HG3 cells; HG3, 100 nM, day 3
  Rep 1 Live Cells [Fold Change]: 5.29 Fold Change
  Rep 2 Live Cells [Fold Change]: 5.42 Fold Change
  Rep 3 Live Cells [Fold Change]: 7.7 Fold Change
  Rep 4 Live Cells [Fold Change]: 8.317 Fold Change
HG3 cells; HG3, 100 nM, day 6
  Rep 1 Live Cells [Fold Change]: 34.2087 Fold Change
  Rep 2 Live Cells [Fold Change]: 34.688 Fold Change
  Rep 3 Live Cells [Fold Change]: 44.4033 Fold Change
  Rep 4 Live Cells [Fold Change]: 58.2167 Fold Change
HG3 cells; HG3, 100 nM, day 10
  Rep 1 Live Cells [Fold Change]: 327.781 Fold Change
  Rep 2 Live Cells [Fold Change]: 304.216 Fold Change
  Rep 3 Live Cells [Fold Change]: 521.739 Fold Change
  Rep 4 Live Cells [Fold Change]: 589.444 Fold Change
HG3 cells; HG3, 100 nM, day 12
  Rep 1 Live Cells [Fold Change]: 1552.37 Fold Change
  Rep 2 Live Cells [Fold Change]: 1763.75 Fold Change
  Rep 3 Live Cells [Fold Change]: 1182.61 Fold Change
  Rep 4 Live Cells [Fold Change]: 2564.08 Fold Change
HG3 cells; HG3, 1 µM, day 0
  Rep 1 Live Cells [Fold Change]: 1 Fold Change
  Rep 2 Live Cells [Fold Change]: 1 Fold Change
  Rep 3 Live Cells [Fold Change]: 1 Fold Change
  Rep 4 Live Cells [Fold Change]: 1 Fold Change
HG3 cells; HG3, 1 µM, day 3
  Rep 1 Live Cells [Fold Change]: 4.22 Fold Change
  Rep 2 Live Cells [Fold Change]: 4.83 Fold Change
  Rep 3 Live Cells [Fold Change]: 7.35 Fold Change
  Rep 4 Live Cells [Fold Change]: 8.167 Fold Change
HG3 cells; HG3, 1 µM, day 6
  Rep 1 Live Cells [Fold Change]: 27.219 Fold Change
  Rep 2 Live Cells [Fold Change]: 35.0658 Fold Change
  Rep 3 Live Cells [Fold Change]: 34.79 Fold Change
  Rep 4 Live Cells [Fold Change]: 45.4611 Fold Change
HG3 cells; HG3, 1 µM, day 10
  Rep 1 Live Cells [Fold Change]: 173.707 Fold Change
  Rep 2 Live Cells [Fold Change]: 145.701 Fold Change
  Rep 3 Live Cells [Fold Change]: 233.093 Fold Change
  Rep 4 Live Cells [Fold Change]: 381.873 Fold Change
HG3 cells; HG3, 1 µM, day 12
  Rep 1 Live Cells [Fold Change]: 608.205 Fold Change
  Rep 2 Live Cells [Fold Change]: 463.207 Fold Change
  Rep 3 Live Cells [Fold Change]: 924.602 Fold Change
  Rep 4 Live Cells [Fold Change]: 1559.32 Fold Change
HG3 cells; HG3, continuous exposure over 12 days
  effect on growth potential (cell growth): No changes in growth potential
